Laboratory results taken from PubChem BioAssay (NCI).
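Five compound concentrations were applied to cells in 96-well plates for 48 hours; endpoints were derived by simple linear interpolation of the resulting dose-response curve. Abbreviation: GI50, concentration required for 50% inhibition of growth. TGI is the concentration that stops growth completely.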

Assays:
Test in all cases: inhibition of tumour cell growth, NCI panel, 48 h
[1] = system: T-47D breast
[2] = system: OVCAR-5 ovarian
[3] = system: NCI-H23 lung
[4] = system: UO-31 renal
[5] = system: LOX IMVI melanoma
[6] = system: K-562 leukemia
[7] = system: RXF 393 renal
[8] = system: HCT-116 colon
[9] = system: HS 578T breast
[10] = system: UACC-62 melanoma

Row | SMILES | TGI [1] | TGI [2] | TGI [3] | TGI [4] | TGI [5] | TGI [6] | TGI [7] | TGI [8] | TGI [9] | TGI [10] | GI50 [1] | GI50 [2] | GI50 [3] | GI50 [4] | GI50 [6] | GI50 [7] | GI50 [10] | GI50 [8] | GI50 [9]
1 | NC(=S)N/N=C\c1ccc(OCc2cccc(COc3ccc(/C=N/NC(N)=S)cc3)n2)cc1 | 0.921 µM | 52.1 µM | > 100 µM | > 100 µM | > 100 µM | > 100 µM | 47.9 µM | > 100 µM | > 100 µM |  |  |  |  |  |  |  |  |  | 
2 | O=[N+]([O-])c1ccc(S[C@@H]2[C@H]3c4c(-c5ccccc5)[nH]c(-c5ccccc5)c4[C@@H]2C[C@H]3Cl)cc1 | 8.67 µM | > 100 µM | 8.91 µM | 28.4 µM | 15.4 µM |  | 4.3 µM | 7.86 µM | 72.2 µM | 37.3 µM |  |  |  |  |  |  |  |  | 
3 | CC1(C)OCC(C(O)C2OC(C)(C)OC2C=O)O1 (stereo not given) |  | > 100 µM | > 100 µM | > 100 µM | > 100 µM | > 100 µM |  | > 100 µM | > 100 µM | > 100 µM |  |  |  |  |  |  |  |  | 
4 | Cc1cc(/C=C\c2ccc3ccccc3[n+]2C)c(O)c2ncccc12 | 5.68 µM | 6.19 µM | 3.25 µM | 3.27 µM |  | > 100 µM | 6.03 µM | 1.41 µM | 7.5 µM | 2.62 µM | 0.835 µM | 0.829 µM | 0.276 µM | 0.405 µM | 0.169 µM | 1.55 µM | 0.207 µM | 0.116 µM | 0.681 µM
5 | O=C(NCc1cccc(C(F)(F)F)c1)c1cc2sccc2nc1C(F)(F)F | > 100 µM | > 100 µM | > 100 µM | > 100 µM |  | > 100 µM | > 100 µM | > 100 µM | 94.1 µM | > 100 µM |  |  |  |  |  |  |  |  | 
6 | CN(C)c1nc(N(C)C)nc(N(C)C23CC4CC(CC(C4)C2)C3)n1 | > 100 µM | > 100 µM | 34.1 µM | > 100 µM |  | > 100 µM | 67.9 µM | 58.8 µM |  | > 100 µM |  |  |  |  |  |  |  |  | 
7 | N#Cc1nc(CCCCCN2C(=O)c3ccccc3C2=O)oc1N | > 100 µM | > 100 µM | > 100 µM | > 100 µM | > 100 µM | > 100 µM | > 100 µM | > 100 µM | > 100 µM |  |  |  |  |  |  |  |  |  | 
8 | CCOC(=O)C(=[N+]=[N-])C(=O)Nc1nn2nnnc2c2ccccc12 |  | > 100 µM | > 100 µM | > 100 µM | > 100 µM | > 100 µM | > 100 µM | > 100 µM |  | > 100 µM |  |  |  |  |  |  |  |  | 
9 | CN(C)CCNC(=O)c1ccc(NCCCN(C)CCCNc2ccc3c(=O)n(CCN(C)C)c(=O)n4c5ccccc5c(=O)c2c34)c2c(=O)c3ccccc3[nH]c12 | 1.89 µM | 0.68 µM | 0.27 µM | 0.301 µM | 0.119 µM | 1.06 µM | 0.271 µM | 0.0704 µM |  | 0.239 µM |  |  |  |  |  |  |  |  | 
10 | c1ccc(CCN2CCc3[nH]c4ccccc4c3C2)cc1 | 51.5 µM | 67 µM | > 100 µM | 32 µM | 35.4 µM | 45.5 µM | 34.3 µM | 28.7 µM |  | > 10 µM |  |  |  |  |  |  |  |  | 
11 | Clc1ccc(N2N=C(c3cccc(Nc4ccncc4)c3)CC2c2ccc3c(c2)OCO3)cc1 (stereo not given) | 5.07 µM | 5.69 µM | 3.37 µM | 2.86 µM |  | 5.39 µM |  |  |  | 3.32 µM | 2.13 µM | 2.11 µM | 1.74 µM | 1.36 µM | 2.09 µM |  | 1.76 µM |  | 
12 | CC(=O)OCC1OC(n2c3c(c(-c4cccc5ccccc45)c(C#N)c2=S)CCCC3)C(OC(C)=O)C(OC(C)=O)C1OC(C)=O (stereo not given) | > 100 µM | > 100 µM | > 100 µM | 62.2 µM | > 100 µM | > 100 µM | > 100 µM | > 100 µM |  | > 100 µM |  |  |  |  |  |  |  |  | 
13 | CC(C)=CCC/C(C)=C/CC/C(C)=C/Cc1c(O)c2ccccc2oc1=O |  |  | > 100 µM | > 100 µM | > 100 µM | > 100 µM | > 100 µM | > 100 µM |  | > 100 µM |  |  |  |  |  |  |  |  | 
14 | Cc1ccc(C(=O)N/N=C(\N=Nc2cccc(Cl)c2)c2ccc(N(CCC#N)CCC#N)cc2C)cc1 | > 100 µM | > 100 µM | > 100 µM | > 100 µM | > 100 µM | > 100 µM | > 100 µM | > 100 µM |  | > 100 µM |  |  |  |  |  |  |  |  | 
15 | O=C(CCN1CCCC1)Nc1ccc2sc3ccccc3c(=O)c2n1 | > 31.6 µM | 19 µM | 22.9 µM | 16.3 µM |  | 21.3 µM |  | 16.4 µM | 18.2 µM | 17.2 µM |  |  |  |  |  |  |  |  | 
16 | O=CC(O)C(O)C(O)C(O)C(=O)NCCCCCCCCCCCCNC(=O)C(O)C(O)C(O)C(O)C=O (stereo not given) | > 100 µM | > 100 µM | > 100 µM | > 100 µM | > 100 µM |  | > 100 µM | > 100 µM | > 100 µM | > 100 µM |  |  |  |  |  |  |  |  | 
